The record followed here is patent US20260199484A1, “PROTAC DEGRADERS OF MLLT1 AND/OR MLLT3” (DARK BLUE THERAPEUTICS LTD, priority 2024, published 2026).

By IC50 is commonly meant the concentration that inhibits the measured activity by half. A high value points to weaker potency.

For one test, the target named is T1, MLLT3 (Homo sapiens, UniProt P42568).
T1 sequence (P42568 1-568): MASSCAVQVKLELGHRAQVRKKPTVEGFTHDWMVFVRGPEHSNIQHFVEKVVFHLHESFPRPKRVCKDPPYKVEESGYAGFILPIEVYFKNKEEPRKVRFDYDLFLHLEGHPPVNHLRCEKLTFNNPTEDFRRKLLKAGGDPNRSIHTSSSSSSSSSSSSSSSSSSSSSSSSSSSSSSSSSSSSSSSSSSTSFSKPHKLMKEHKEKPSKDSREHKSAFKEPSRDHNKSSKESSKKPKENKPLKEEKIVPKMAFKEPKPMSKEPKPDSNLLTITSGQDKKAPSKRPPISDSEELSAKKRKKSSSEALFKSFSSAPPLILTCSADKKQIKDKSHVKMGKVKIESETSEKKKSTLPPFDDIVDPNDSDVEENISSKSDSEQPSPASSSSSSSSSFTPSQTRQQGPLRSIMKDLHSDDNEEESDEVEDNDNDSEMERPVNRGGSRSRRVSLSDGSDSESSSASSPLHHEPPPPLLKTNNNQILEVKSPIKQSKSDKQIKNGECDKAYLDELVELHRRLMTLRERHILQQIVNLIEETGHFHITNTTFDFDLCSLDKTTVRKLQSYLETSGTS
The test can be described thus: MLLT3 HTRF IC50 determination assay (H3K9cro peptide displacement). It is filed as binding. From the text: (§1) This procedure is intended to measure the interaction between YEATS proteins and histone peptides modified by an appropriate epigenetic mark and can be used to assay compounds which bind to the YEATS proteins and inhibit this interaction. The assay uses 6His tagged MLLT1 or MLLT3 with an anti-6His antibody conjugated with Eu^3+ chelate (donor) and a biotinylated peptide with Streptavidin conjugated XL-665 (acceptor). When the donor and acceptor labels are in close proximity, by binding of the peptide by MLLT1 or MLLT3, the excitation of the donor (337 nm) triggers a Fluorescence Resonance Energy Transfer (FRET) to the acceptor which then fluoresces at specific wavelength (665 nm).
(§2) This step optimises the protein/peptide ratio that will be used in HTRF screening assay in order to allow the best signal-to-noise ratio. Each new purified protein should be titrate this way as the signal-to-noise ratio may differ from different protein batches. Displacement assay for MLLT1 and MLLT3 was performed by using H3K9 cro peptide (ARTKQTAR(Kcrot)STGGKAPRKQLYK(biotin)).
(§3) A serial dilution of 4× solution of biotinylated peptide was prepared in assay buffer (25 mM HEPES, 20 mM NaCl, 0.05% BSA, 0.05% Tween-20, pH 7.0) covering concentrations from 3.2 μM to 0.2 nM. and 5 μL of each dilution were transferred horizontally to fill 15 columns of a white ProxiPlate-384 Plus shallow well Microplate (Perkin Elmer, USA). A sixteenth column of buffer was also included for a background reference. In parallel, a serial dilution of the 6His-tag protein of interest was prepared in the same way and 5 μL of each dilution were vertically added to the wells containing the peptide dilutions. Buffer has been transferred to the last line of the plate in order to make a no-protein reference. The microplate has been covered and incubated 1 hour at room temperature. A 2× detection mix was prepared in assay buffer by diluting streptavidin conjugated with XL-665 (610SAXLB, Cisbio Bioassays, France) to 1/2000 and anti-6His(Eu) chelate (LANCE Eu-W1024 Anti-6×His, ADO111, Perkinelmer LAS (UK)LTD) to 1/20000, 10 μL were added to each well and the plate has been incubated for 1 to 24 hours at room temperature in the dark. The plate was read in the Pherastar using the HTRF module with dual emission protocol (A=ex. 320 nm em. 665 nm, B=ex. 320 nm em. 620 nm).
(§4) The HTRF ratio was calculated as channel A/B*10000 and the specific signal as follow: specific signal=HTRF Ratio Positive signal—HTRF Ratio Negative signal (without protein). The concentrations of protein and peptide that allow the maximum specific signal without saturation were selected to perform HRTF screening assay described below.
(§5) The compounds were dissolved in DMSO at a stock concentration of 10 mM and dispensed into microplate using the Echo acoustic liquid handler (Labcyte, Beckman Coulter, USA). The assay covers a window of compound concentrations from 20 μM to 20 nM spread in 11 data points in duplicate. Solvent and compound controls were added to each plate in order to calculate the background signal.
(§6) Ten microliters of 2× mix of 6His-protein and biotinylated peptide, the concentrations were determined above, were added to the dispensed compounds and incubated for one hour at room temperature in the dark. Ten microliters of the 2× detection mix was added to each well and the plate was incubated for another hour at room temperature in the dark and the plate was read in order to calculate the HTRF specific signal. The % inhibition values as follows:
(§7) The IC50 values were determined by plotting % inhibition vs compound concentration and fitting the data to a non-linear sigmoidal dose response equation (4 parameter fit): […]
A general note: In TR-FRET formats the signal depends on donor and acceptor labels being close together.

Another test deals with T2, MLLT1 (Homo sapiens, UniProt Q03111).
T2 sequence (Q03111 1-559): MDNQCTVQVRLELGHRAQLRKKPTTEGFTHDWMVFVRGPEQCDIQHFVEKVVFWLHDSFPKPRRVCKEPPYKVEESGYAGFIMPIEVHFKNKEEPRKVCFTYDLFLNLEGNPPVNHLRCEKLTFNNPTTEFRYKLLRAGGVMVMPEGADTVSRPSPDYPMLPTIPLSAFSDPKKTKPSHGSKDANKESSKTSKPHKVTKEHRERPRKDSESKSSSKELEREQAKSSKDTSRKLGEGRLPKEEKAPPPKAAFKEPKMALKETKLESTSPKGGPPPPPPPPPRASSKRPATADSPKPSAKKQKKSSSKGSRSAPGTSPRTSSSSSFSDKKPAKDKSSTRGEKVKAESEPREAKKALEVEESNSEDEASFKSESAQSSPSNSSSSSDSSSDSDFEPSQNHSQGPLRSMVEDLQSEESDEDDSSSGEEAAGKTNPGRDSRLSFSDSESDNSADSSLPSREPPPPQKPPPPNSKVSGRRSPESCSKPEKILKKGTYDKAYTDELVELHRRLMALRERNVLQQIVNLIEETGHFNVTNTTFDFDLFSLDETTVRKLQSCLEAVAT
In words: MLLT1 HTRF IC50 determination assay (H3K9cro peptide displacement). Format: binding.
Excerpt: as §1, §2, §3, §4, §5, §6, §7

For the compound `CN1CCCC1c1cc2cnc(NC(=O)c3ccc4c(cnn4C)c3)cc2[nH]1` (single isomer, unassigned) [Example 78, 1-methyl-N-{2-[(rel-2S)-1-methylpyrrolidin-2-yl]-1H-pyrrolo[3,2-c]pyridin-6-yl}indazole-5-carboxamide], the IC50 at MLLT3 (category, Table 4) is 1000 to 10000 nM; on MLLT1 (category, Table 4), 1000 to 10000 nM.
As to `CN1CCCC1c1cc2cnc(NC(=O)c3ccc4c(cnn4C)c3)cc2[nH]1` (single isomer, unassigned) [Example 79, 1-methyl-N-{2-[(rel-2R)-1-methylpyrrolidin-2-yl]-1H-pyrrolo[3,2-c]pyridin-6-yl}indazole-5-carboxamide], the half-maximal inhibitory concentration (IC50) on MLLT3 (category, Table 4) was ≤ 100 nM; at MLLT1 (category, Table 4), ≤ 100 nM.
On to `CCN1CCCC1c1cc2cnc(NC(=O)c3ccc4c(C)nn(C)c4c3)cc2[nH]1` (single isomer, unassigned) [Example 84, N-{2-[(rel-2R)-1-ethylpyrrolidin-2-yl]-1H-pyrrolo[3,2-c]pyridin-6-yl}-1,3-dimethylindazole-6-carboxamide], for which the IC50 is 100 to 1000 nM at MLLT3 (category, Table 4) and 100 to 1000 nM at MLLT1 (category, Table 4).
As to `CN1CCCC1c1[nH]c2cc(NC(=O)c3ccc4c(cnn4C)c3)ncc2c1F` (single isomer, unassigned) [Example 86, N-{3-fluoro-2-[(rel-2S)-1-methylpyrrolidin-2-yl]-1H-pyrrolo[3,2-c]pyridin-6-yl}-1-methylindazole-5-carboxamide], the IC50 is 1000 to 10000 nM at MLLT3 (category, Table 4) and 1000 to 10000 nM at MLLT1 (category, Table 4).
`CN1CCCC1c1[nH]c2cc(NC(=O)c3ccc4c(cnn4C)c3)ncc2c1F` (single isomer, unassigned) [Example 87, N-{3-fluoro-2-[(rel-2R)-1-methylpyrrolidin-2-yl]-1H-pyrrolo[3,2-c]pyridin-6-yl}-1-methylindazole-5-carboxamide]: the IC50 at MLLT3 (category, Table 4) was ≤ 100 nM; on MLLT1 (category, Table 4) it was ≤ 100 nM.
Take `Cc1nn(C)c2cc(C(=O)Nc3cc4[nH]c(C5CCCN5C)c(F)c4cn3)ccc12` (single isomer, unassigned) [Example 88, N-{3-fluoro-2-[(rel-2R)-1-methylpyrrolidin-2-yl]-1H-pyrrolo[3,2-c]pyridin-6-yl}-1,3-dimethylindazole-6-carboxamide]: the IC50 was 37 nM on MLLT3 (Table 5); ≤ 100 nM on MLLT3 (category, Table 4); 17 nM at MLLT1 (Table 5); ≤ 100 nM at MLLT1 (category, Table 4).
Regarding `Cc1nn(C)c2cc(C(=O)Nc3cc4[nH]c(C5CCCN5C)c(F)c4cn3)ccc12` (single isomer, unassigned) [Example 89, N-{3-fluoro-2-[(rel-2S)-1-methylpyrrolidin-2-yl]-1H-pyrrolo[3,2-c]pyridin-6-yl}-1,3-dimethylindazole-6-carboxamide], the IC50 on MLLT3 (category, Table 4) was in the range of 1000 to 10000 nM; on MLLT1 (category, Table 4), 100 to 1000 nM.
Turning to `Cc1c(C2CCCN2C)[nH]c2cc(NC(=O)c3ccc4c(C)nn(C)c4c3)ncc12` (single isomer, unassigned) [Example 90, 1,3-dimethyl-N-{3-methyl-2-[(rel-2R)-1-methylpyrrolidin-2-yl]-1H-pyrrolo[3,2-c]pyridin-6-yl}indazole-6-carboxamide], the IC50 was 45 nM on MLLT3 (Table 5); ≤ 100 nM at MLLT3 (category, Table 4); 12 nM at MLLT1 (Table 5); ≤ 100 nM on MLLT1 (category, Table 4).
As for `Cc1c(C2CCCN2C)[nH]c2cc(NC(=O)c3ccc4c(C)nn(C)c4c3)ncc12` (single isomer, unassigned) [Example 91, 1,3-dimethyl-N-{3-methyl-2-[(rel-2S)-1-methylpyrrolidin-2-yl]-1H-pyrrolo[3,2-c]pyridin-6-yl}indazole-6-carboxamide], the half-maximal inhibitory concentration (IC50) at MLLT3 (category, Table 4) lay within 1000 to 10000 nM; at MLLT1 (category, Table 4) it was 1000 to 10000 nM.
On to `Cc1nc(NC(=O)c2ccc3c(C)nn(C)c3c2)cc2[nH]c(C3CCCN3C)cc12` (single isomer, unassigned) [Example 92, 1,3-dimethyl-N-{4-methyl-2-[(rel-2R)-1-methylpyrrolidin-2-yl]-1H-pyrrolo[3,2-c]pyridin-6-yl}indazole-6-carboxamide], for which the IC50 was 63 nM at MLLT3 (Table 5); ≤ 100 nM on MLLT3 (category, Table 4); 37 nM at MLLT1 (Table 5); ≤ 100 nM on MLLT1 (category, Table 4).
